From patent publication US6475509B1, “Covalent conjugates of sodium channel blockers and active compounds” (The University of North Carolina at Chapel Hill, priority 1999, dated 2002)
Counter-ions that a name gives are not always drawn.

Tests used:
[1] = system: cultured airway epithelia; assay: Confocal microscopy assay of drug uptake into cultured airway epithelia; type: cell-based; conditions: compound on apical surface of airway cultures, x-z confocal microscopy; relative to amiloride
Experimental: FIG. 2 is an example of a confocal microscopy assay of drug uptake into cultured airway epithelia. In this assay, a compound (10^−4 M) is placed on the airway surface and fluorescence from the cells collected by x-z scanning confocal microscopy. The images shown on the left depict fluorescence in the cells 20 minutes after exposure to amiloride, benzamil and phenamil. Quantitation of the drug uptake is graphically illustrated on the right in terms of units of fluorescence.
The second assay utilizes confocal microscopy of amiloride congener uptake: Virtually all amiloride-like molecules fluoresce in UV range. This property of these molecules was used to directly measure cellular uptake, using a x-z confocal microscope (Leica). […] Serial x-z images were obtained with time and the magnitude of fluorescence accumulating in the cell compartment quantitated and plotted. […] Two compounds from the synthesis series described above (CF-509 and CF-519) appear to fulfil this criterion. Compounds that were equipotent or greater with amiloride were tested for wash-out as described above. However, because wash-out may reflect both potency and cell uptake, the rate of accumulation of fluorescence (indexed to the specific fluorescence/emission spectrum of each compound) in the cell compartment as a function of time was also routinely measured. […]

[2] = system: airway epithelial Na^+ currents; assay: Lumenal drug inhibition of airway epithelial Na+ currents, monolayers in Ussing chambers, with wash-out; type: cell-based, human or dog; conditions: for Effect of washout (3) 100% = Baseline: after maximal concentration (10^-4 M), lumenal bath exchanged three times with fresh KBR; for IC50 / Max Inhibition (%) from baseline: mucosal bath, voltage clamp; for IC50: half-log dose addition
Experimental: In the second potency assay, airway epithelial monolayers mounted were in Ussing chambers: The principal assay consisted of tests of lumenal drug inhibition of airway epithelial Na^+ currents. Cells obtained from freshly excised human or dog airways were seeded onto SNAP-well Inserts (CoStar), cultured under air-liquid (ALI) conditions in hormonally defined media. The cells were assayed for Na^+ transport activity while bathed in Krebs bicarbonate Ringer (KBR) in the Ussing chambers under voltage clamp conditions. All test drug additions were to the mucosal bath with half-log dose addition protocols (10^−11 M-[…]). All drugs were made in standard stocks of 10^−2 M drug in DMSO. Eight preparations were typically run in parallel; two preparations/run were routinely used to assay amiloride and benzamil. After the maximal concentration (10^−4 M) was administered, the lumenal bath was exchanged three times with fresh KBR solution, which was defined as the “wash-out” effect. All data from the voltage clamps were collected via a computer interface and analyzed off-line.
Dose-effect relationships for all compounds were considered and analyzed by the Prism 3.0 program. The IC50, maximal effective concentrations, and percent washout were calculated and compared to those of amiloride and benzamil as reference compounds.
The first assay is referred to an assay of reversibility. Empirically, the percent of wash-out correlates with cellular uptake. The relationship is complex because reversibility is also a function of potency. However, reversibility is a quick and simple screen. The compounds that “reverse” best in this assay referenced to benzamil were also the least absorbed in the confocal assay, as described below.

| Compound | Cellular uptake (fluorescence accumulating in the cell compartment) [1] | Effect of washout (3) 100% = Baseline [2] [%] | IC50 [2] [nM] | Max Inhibition (%) from baseline [2] [%] |
| --- | --- | --- | --- | --- |
| NC(=NCc1ccccc1)NC(=O)c1nc(Cl)c(N)nc1N [benzamil, 3,5-diamino-6-chloro-N-(benzylaminoaminomethylene) pyrazinecarboxamide, reference compound] | rapid |  |  |  |
| Br.Br.N=C(NCc1cccc(CNC(=N)NC(=O)c2nc(Cl)c(N)nc2N)c1)NC(=O)c1nc(Cl)c(N)nc1N [CF-512, 1,3-Bis[(3,5-diamino-6-chloropyrazinovl)guanidino]xylylene Dihydrobromide] |  | 60 | 197 | 92 |
| N/C(=N\C(=O)c1nc(Cl)c(N)nc1N)NCc1ccc(CN/C(N)=N/C(=O)c2nc(Cl)c(N)nc2N)cc1 [CF-516, 1,4-Bis[(3,5-diamino-6-chloropyrazinoyl)guanidinol]xylylene Dihydrobromide] |  | 65 | 330 | 90 |
